The values that follow come from US20230100941A1, “MOLECULES TARGETING MUTANT RAS PROTEIN” (AELIN THERAPEUTICS, priority 2020, published 2023).

One data set deals with T1, G12V mutant KRAS (Homo sapiens, UniProt P01116, G12V).
T1 construct: made in house; host or cells: cell-free: PURExpress In Vitro Protein Synthesis Kit (New England Biolabs), linear T7 PCR template
The data set can be described thus: In vitro translation assay with streptavidin pull-down of biotinylated pept-ins, Western blot for KRAS. Format: binding. To be noted: 10 μM biotinylated pept-in. As for the experimental part: (§1) In vitro translation assays were performed using the PURExpress® In Vitro Protein Synthesis Kit (New England Biolabs) according to the manufacturer's instructions. Briefly, linear DNA fragments containing T7 promotor and terminator sequences flanking the KRAS coding sequence were generated using PCR and purified using the MinElute PCR Purification Kit (Qiagen). 250 ng of linear DNA was subsequently used for the in vitro translation reaction, which was performed for 2 hours at 37° C. with shaking (1000 rpm). Indicated biotinylated pept-ins were mixed in the translation reactions from a 5 mM stock solution in 6M Urea to a final concentration of 10 μM. Upon completion of the translation reaction, biotinylated pept-ins were captured from the reaction mix using Streptavidin coated beads (Pierce) during 90 min at room temperature. Beads were next washed with TBS containing 0.1% Tween 20 and bound proteins were finally boiled off in 1×SDS loading dye (Bio-Rad) in TBS buffer. Proteins were resolved using Any kD 15-well Mini-PROTEAN gels (Bio-Rad) during SDS-PAGE and probed for KRAS after Western blotting using a mouse monoclonal KRAS-specific antibody (SC-30, Santa Cruz Biotechnology), which was detected with an HRP-coupled anti-mouse secondary antibody using chemiluminescence on a Bio-Rad Chemidoc MP imaging instrument.
(§2) To mimic this in vitro, we devised an in vitro translation setup producing either wild-type or mutant (G12V, G12C, G12D or G13D) KRAS in the presence of biotinylated RAS-targeting pept-ins. This allowed us to perform a streptavidin pull-down to capture the biotinylated pept-ins from the translation reaction and perform SDS-PAGE and Western blotting to probe the pulled-down fraction for the presence of KRAS. The biotinylated version of pept-in 04-004-N001, i.e. 04-004-N011, which harbours an APR window sequence derived from a wild-type APR, is predicted to target all RAS proteins independently from their mutation status.
A general note: In western blotting, separated proteins are transferred to a membrane and probed.

Another data set has as its target T2, G12C mutant KRAS (Homo sapiens, UniProt P01116, G12C).
T2 construct: made in house; host or cells: cell-free: PURExpress In Vitro Protein Synthesis Kit (New England Biolabs), linear T7 PCR template
The description is as above. In kind it is binding. To be noted: 10 μM biotinylated pept-in. As for the experimental part:
as §1, §2

A further data set concerns SW620 tumor. Description: In vivo SW620 xenograft model of human KRAS G12V colorectal cancer. The arrangement: species or system mouse. To be noted: for average tumor volume at day 22, 20 μg dosing group / average tumor volume at day 22, 200 μg dosing group: intratumoral injection three times per week. As for the experimental part:
Female NCr nu/nu mice (8 to 12 weeks) were inoculated with 1×10^6 SW620 tumor cells in 50% Matrigel subcutaneously in the hind flank. The cell Injection Volume was 0.1 mL/mouse. When tumors reached an average size of 100-150 mm^3 a pair match was performed, and treatment started. Group sizes were N=6 for the non-treated group, N=5 for the vehicle groups and N=8 for the pept-in and positive control groups. Tumor growth was monitored by caliper measurement twice per week. Model response was monitored by Irinotecan dosed once per week at 100 mg/kg intraperitoneally for 3 weeks.
To assess whether the RAS-targeting pept-ins are able to attenuate growth of KRAS G12V-driven tumors in vivo, a subcutaneous xenograft model of human KRAS G12V colorectal cancer (SW620) was used. Once the tumors reached 100-150mm^3 in size, pept-ins were administered directly into the tumor mass by intratumoral injection three times per week during two weeks at two different doses (20 μg and 200μg).
(In xenograft studies the graft and the host belong to different species.)

Data set [1] in a line: Single-dose viability screen on adherently growing (2D) NCI-H441 cells (CellTiter Blue). To be noted: 25 μM single dose, adherent NCI-H441, compared to vehicle (30 mM Urea); read-out: decrease in viability after 4 days of exposure. Format: cell-based, human. On the procedure:
For the single-dose viability screen on adherent cells, 4000 cells were seeded per well in black μclear® Cellstar® F-bottom 96-well plates (Greiner) in 100 μL full growth medium. The day after seeding, growth medium was replaced with full growth medium containing the indicated pept-in at a fixed final dose of 25 μM. Technical duplicates were included for all experimental pept-in conditions. 2 and 4 days after treatment viability was assessed using the CellTiter Blue reagent (Promega) according to the manufacturer's instructions, with the following adaptation: CellTiter Blue reagent was diluted 1 in 2 in PBS. Readout was performed on a Clariostar plate reader (BMG). Dose-response assays were performed with the following adaptations: pept-ins were tested in dose-response using a 1 in 2 dilution series with 50 μM being the highest final concentration used. Furthermore, a single viability read-out was performed 3 days after treatment using the Celltiter Glo reagent (Promega) according to the manufacturer's instructions, with the following adaptation: CellTiter Glo reagent was diluted 1 in 4 in PBS.
To assess pept-in activity on the viability of RAS-mutant tumor cells, we used adherent NCI-H441 lung adenocarcinoma cells which harbor a G12V mutation in KRAS. To verify that this cell line was indeed dependent on KRAS for its growth, we used SAH-SOS-1A as a positive control. SAH-SOS-1A is a peptidic compound whose design is based on a stabilized helix from son of sevenless 1, the canonical guanine exchange factor for KRAS (Leshchiner et al. Proc Natl Acad Sci U S A. 2015, vol. 112(6), 1761-6).
Pept-ins were screened at a single dose of 25 μM (corresponds to final concentration of 30 mM Urea) and viability was measured after 2 and 4 days of exposure using the CellTiter Blue reagent. […] Hit rates and potencies for the other templates tested were considerably lower. […] One of these pept-ins (04-004-N001) harbours an APR window sequence derived from another APR of RAS, that is thus present in both G12 mutant and wild-type RAS, while the other four pept-ins (04-006-N001, 04-014-N001, 04-015-N001 and 04-033-N001) harbour an APR window sequence that is derived from and contains a G12V mutant site.

Data set [2] deals with RASless MEFs expressing KRAS G12V. Description: Spheroid efficacy on RASless MEF panel. Format: cell-based, mouse. The settings on record: spheroids, 5 days of exposure. As for the experimental part:
(§3) For the single-dose viability screen on spheroid cultures, 1000 cells were seeded per well in black Ultra-Low Attachment (ULA) round-bottom 96-well plates (Corning) in 75 μL full growth medium. The day after seeding, spheroids were treated by addition of 50 µl of full growth medium containing the indicated test compounds so that the final concentration after adding was 25 μM. Technical duplicates were included for all experimental pept-in conditions 5 days after treatment viability was assessed using the CellTiter Glo 3D reagent (Promega) according to the manufacturer's instructions, with the following adaptation: 80 μL of reagent was added per well. Readout was performed on a Clariostar plate reader (BMG). For dose-response assays using RASless MEFs, cells were seeded at 1000 (G12V and G12C) or 2000 (wild-type and BRAF V600E) in Matrigel-containing medium, in order to obtain equally viable spheroids at start of treatment, 24 hrs later. […]
RAS mutant-selectivity on cellular efficacy was assessed using the isogenic RASless mouse embryonic fibroblast (MEF) panel. […] The panel assessed included the common clinical KRAS variants expressed as transgene (WT, G12V and G12C) and an additional cell line dependent on the expression of BRAF V600E for proliferation.
Efficacy of RAS-targeting pept-ins on MEFs growing as spheroids was assessed after 5 days of exposure. […]

The subject of data set [3] is NCI-H441 cells growing as suspension spheroid cultures. The data set can be described thus: Single-dose viability screen on NCI-H441 suspension spheroid cultures (3D, CellTiter Glo 3D). In kind it is cell-based, human. The settings on record: 25 μM single dose, 5 days. On the procedure:
as §3, with “(BMG).” for “(BMG). For dose-response assays using RASless MEFs, cells were seeded at 1000 (G12V and G12C) or 2000 (wild-type and BRAF V600E) in Matrigel-containing medium, in order to obtain equally viable spheroids at start of treatment, 24 hrs later.”
As previous reports have shown that adherent growth of KRAS mutant cells lines might attenuate their sensitivity to KRAS inhibition or knockdown (Fujita-Sato et al. Cancer Res. 2015, vol. 75, 2851-62; Patricelli et al. Cancer Discov. 2016, vol. 6, 316-29; Vartanian et al. J Biol Chem. 2013, vol. 288, 2403-13), we complemented the screen on adherently growing NCI-H441 cells with a screen on suspension spheroid cultures of the same cell line. […] Viability of the spheroid cultures was determined after 5 days of exposure using the CellTiter Glo 3D reagent from Promega. […]
(Cellular ATP, detected with luciferase, serves as a proxy for viable cell number.)

Ends that are not written are not given here.

Turning to “04-006-N007: biotinylated version of a biologically active pept-in harbouring an APR window containing the G12V mutant site (KVVVGAVKGSKVVVGAVK; also: biotinylated, site not given here)”, the “pull-down of G12V mutant KRAS” value with G12V mutant KRAS is recorded as “notable pull-down was only observed for the G12V mutant KRAS”.
On to “04-015-N026: biotinylated version of a biologically active pept-in harbouring an APR window containing the G12V mutant site (KVVVGAVGKGSKVVVGAVGK; also: biotinylated, site not given here)”, for which the “pull-down of G12V mutant KRAS” value in the data set with G12V mutant KRAS was “notable pull-down”. In addition, in the data set with G12C mutant KRAS, the “pull-down of G12C mutant KRAS” value is recorded as “notable pull-down”.
Turning to `CC(=O)N[C@@H](CCCCN)C(=O)N[C@H](C(=O)N[C@H](C(=O)N[C@H](C(=O)NCC(=O)N[C@@H](C)C(=O)N[C@H](C(=O)NCC(=O)N[C@@H](CCCCN)C(=O)NCC(=O)N[C@@H](CO)C(=O)N[C@@H](CCCCN)C(=O)N[C@H](C(=O)N[C@H](C(=O)N[C@H](C(=O)NCC(=O)N[C@@H](C)C(=O)N[C@H](C(=O)NCC(=O)N[C@@H](CCCCN)C(N)=O)C(C)C)C(C)C)C(C)C)C(C)C)C(C)C)C(C)C)C(C)C)C(C)C` [04-015-N001], in the data set on SW620 tumor, the “average tumor volume at day 22, 20 μg dosing group” value was “significant reduction in average tumor volume” and the “average tumor volume at day 22, 200 μg dosing group” value is given as “significant reduction in average tumor volume”. The “reduction in tumor growth (comparison between pept-ins)” value in the data set on SW620 tumor (intratumoral injection, 20 μg and 200 μg) is “strongest reduction in tumor growth”. In addition, the cytotoxicity in data set [1] is no less than 75%.
Regarding “04-033-N003: biotinylated version of a biologically active pept-in harbouring an APR window containing the G12V mutant site (KVVVGAVGVGKGSKVVVGAVGVGK; also: biotinylated, site not given here)”, the “pull-down of G12V mutant KRAS” value with G12V mutant KRAS is recorded as “notable pull-down was only observed for the G12V mutant KRAS”.
Regarding Ac-KVVVGAVKGSKVVVGAVK-NH2 [04-006-N001], the cytotoxicity in data set [1] is no less than 75%.
With Ac-KLSVFAIKGSKLSVFAIK-NH2 [04-004-N001], the “efficacy on MEFs expressing KRAS G12V” value in data set [2] is listed as “notable increased efficacy”. In the data set with SW620 tumor, the “average tumor volume at day 22, 20 μg dosing group” value is reported as “only significant for the 200 μg dosing group” and the “average tumor volume at day 22, 200 μg dosing group” value is “significant”. Besides, in data set [1], the cytotoxicity was no less than 75%.
For “Ac-KVVVGAVGVGKGSKVVVGAVGVGK-NH2 [04-033-N001]”, the cytotoxicity in data set [1] was no less than 75%.
Regarding “Ac-KLVVVGAVKGSKLVVVGAVK-NH2 [04-014-N001]”, in data set [3], the “activity in the spheroid setting” value is “did not display activity”. In data set [1], the cytotoxicity was no less than 75%.
